Laboratory results reported in patent US6897209B2, “Labelled factor XIIIa substrates” (GE Healthcare Limited, priority 1997, dated 2005).

Experiments:
Factor XIIIa = molecular target: T1, Factor XIIIa (Homo sapiens, UniProt P00488); assay: Factor XIIIa dependency of incorporation (dimethylcasein uptake, normal vs Factor XIII deficient plasma); type: biochemical; settings: 1 KBq/ml, 60 minutes; uptake in normal plasma minus Factor XIII deficient plasma
T1 construct: Factor XIII is transformed into its active form Factor XIIIa by thrombin in the presence of calcium ions; from tissue; host or cells: human plasma
T1 sequence (P00488 39-732 limits assumed): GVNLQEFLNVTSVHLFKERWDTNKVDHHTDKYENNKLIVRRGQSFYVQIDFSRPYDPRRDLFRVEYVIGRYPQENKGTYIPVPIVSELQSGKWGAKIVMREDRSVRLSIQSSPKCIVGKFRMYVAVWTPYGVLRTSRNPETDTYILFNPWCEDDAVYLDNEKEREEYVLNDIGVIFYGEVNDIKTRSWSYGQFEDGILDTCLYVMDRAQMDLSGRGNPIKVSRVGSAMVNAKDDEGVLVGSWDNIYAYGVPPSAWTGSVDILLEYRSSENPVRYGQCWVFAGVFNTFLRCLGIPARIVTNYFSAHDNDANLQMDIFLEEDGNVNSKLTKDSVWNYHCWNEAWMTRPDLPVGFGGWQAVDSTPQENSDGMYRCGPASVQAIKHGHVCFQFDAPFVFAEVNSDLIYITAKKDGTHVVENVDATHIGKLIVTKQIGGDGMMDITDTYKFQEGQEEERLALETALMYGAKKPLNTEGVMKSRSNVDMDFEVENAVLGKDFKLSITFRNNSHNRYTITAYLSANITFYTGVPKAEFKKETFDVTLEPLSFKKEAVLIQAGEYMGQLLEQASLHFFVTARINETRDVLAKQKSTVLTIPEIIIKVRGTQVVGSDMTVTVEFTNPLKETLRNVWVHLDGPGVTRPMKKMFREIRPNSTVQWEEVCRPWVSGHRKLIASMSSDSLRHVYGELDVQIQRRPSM
Experimental: The assay was changed by replacing the mercaptoethanol with aprotinin at a final concentration of 2 μg/ml, and dimethylcasein (DMC) was used instead of casein.

[1] = system: clots induced in rat inferior vena cava; assay: Incorporation into clots induced in a rat model (rat inferior vena cava model); type: in vivo; settings: rat IVC model
Experimental: The rats (Male Wistar, 250-350 g) were anaesthetised with 15% urethane. After laparotomy, the vena cava was isolated and freed of surrounding fat tissue. […] The average weight of the clots formed in this model was around 27 mg, n=32, (5-50 mg range). The so compounds were injected 5 min post-induction. After 60 min the animals were sacrificed and the clot removed, weighed and counted. Other tissues e.g. blood, lung, heart, were also dissected and counted. The uptake of tracer into the clot was determined as the relative concentration (cpm/g of clot by dose/g animal ) and clot to background tissue.

human plasma clots [2] = molecular target: T2, human plasma clots (Homo sapiens, UniProt P00488); assay: Incorporation into human plasma clots (in vitro plasma clot assay); type: biochemical
T2 construct: Factor XIII is transformed into its active form Factor XIIIa by thrombin in the presence of calcium ions; from tissue; host or cells: human plasma, clotted in vitro with thrombin and calcium chloride
T2 sequence (P00488 39-732): T1 sequence (P00488 39-732 limits assumed)
Experimental: (§1) Incorporation of radiolabelled substrates into fibrin was investigated by induction of an in vitro human plasma clot in the following manner. To a siliconised 5 ml glass vial was added, (a) 800 μl of Tris(hydroxymethyl)aminomethane buffered saline pH 7.5 containing calcium chloride (50 mM Tris, 150 mM sodium chloride, 4 mM calcium chloride.), (b) 40 μl of physiological salt solution containing 100 units of thrombin per ml, (c) 400 μl of human plasma containing the radiolabelled substrate at a concentration of typically 10 kBq/ml. To aid induction of clot a roughened glass rod was added to the reaction vial. Control vials were prepared similarly but with the omission of thrombin and calcium chloride.
(§2) The proportion of total radioactivity was calculated by counting in suitable detection apparatus.
(§3) The fraction of radioactivity retained on the filter, after subtraction of the non-specific binding determined from the control, is a measure of incorporation into the filtered clots.

human plasma clots [3] = assay: as above; type: biochemical; settings: control vials without thrombin and calcium chloride, 60 minutes
Experimental: as §1, §2, §3

[4] = Normal rat biodistribution; type: in vivo; settings: i.v., male Wistar rats, Mean±SD n=3
Experimental: The resolution of a clot image is dependant on the combination of rate of incorporation of the radiopharmaceutical and its blood/tissues clearance rate. For this reason the biodistribution of several compounds has been determined in rats. Male Wistar (100-150 g) rats were injected i.v. with 0.1-0.2 ml of radiolabelled tracer solution (8 MBq/ml) and dissected at different times post-injection. The % ID in each of the selected tissues was measured. Some animals were kept in metabolism cages to be able to determine the % ID excreted in urine and faeces. The dissection times used for the majority of the agents was 2, 15, 30, 60, 240 min. Data are shown as % ID, Mean±SD, (n=3).

[5] = compound injected 5 min post-induction, clot removed after 60 min

SMILES: CC(=NO)C(C)(C)NCCN(CCNC(=O)C1CCC(CNC(=O)c2ccc(S(=O)(=O)NCCCCCN)cc2)CC1)CCNC(C)(C)C(C)=NO (stereo not shown) [Compound 17]
- % specific DMC casein uptake (Factor XIIIa): 22.5%
- Clot/Blood ([1]; 60 min): 1.15
- Clot/Heart ([1]; 60 min): 2.7
- Clot/Liver ([1]; 60 min): 1.26
- Clot/Lung ([1]; 60 min): 1.54
- % ID/g (clot uptake) [1, 5]: 0.32 ± 0.04 % ID/g
- Relative conc (cpm/g of clot by dose/g animal) [1, 5]: 1.1 ± 0.17
- % specific uptake* (human plasma clots [2]; % retained with thrombin − % retained no thrombin): 14.7%
- % retained in plasma clot assay (with thrombin) (human plasma clots [2]; human plasma with thrombin and calcium chloride, 60 minutes, ca. 20° C.): 17%
- % retained in plasma clot assay (no thrombin) (human plasma clots [3]): 2.3%
- % ID Blood ([4]; 2 min post-injection): 18.5 ± 1.06 % ID
- % ID GI Tract ([4]; 2 min post-injection): 6.31 ± 0.6 % ID
- % ID Heart ([4]; 2 min post-injection): 0.34 + 0.17 % ID
- % ID Kidney ([4]; 2 min post-injection): 12.3 ± 0.53 % ID
- % ID Liver ([4]; 2 min post-injection): 4.3 ± 0.06 % ID
- % ID Lung ([4]; 2 min post-injection): 1.69 ± 0.1 % ID
- % ID Muscle ([4]; 2 min post-injection): 25.9 ± 1.8 % ID
- % ID Spleen ([4]; 2 min post-injection): 0.33 ± 0.07 % ID
- % ID Urine ([4]; 2 min post-injection): 1.38 ± 1.34 % ID
- % ID Blood ([4]; 15 min post-injection): 9.46 ± 0.24 % ID
- % ID GI Tract ([4]; 15 min post-injection): 9.6 ± 0.9 % ID
- % ID Heart ([4]; 15 min post-injection): 0.27 + 0.06 % ID
- % ID Kidney ([4]; 15 min post-injection): 7.32 ± 0.76 % ID
- % ID Liver ([4]; 15 min post-injection): 4.25 ± 0.85 % ID
- % ID Lung ([4]; 15 min post-injection): 0.9 ± 0.16 % ID
- % ID Muscle ([4]; 15 min post-injection): 15.6 ± 1.05 % ID
- % ID Spleen ([4]; 15 min post-injection): 0.17 ± 0.04 % ID
- % ID Urine ([4]; 15 min post-injection): 30.1 ± 1.28 % ID
- % ID Blood ([4]; 30 min post-injection): 5.7 ± 0.42 % ID
- % ID GI Tract ([4]; 30 min post-injection): 13.07 ± 1.4 % ID
- % ID Heart ([4]; 30 min post-injection): 0.17 + 0.04 % ID
- % ID Kidney ([4]; 30 min post-injection): 7.1 ± 1.89 % ID
- % ID Liver ([4]; 30 min post-injection): 2.94 ± 0.22 % ID
- % ID Lung ([4]; 30 min post-injection): 0.54 ± 0.07 % ID
- % ID Muscle ([4]; 30 min post-injection): 8.51 ± 0.93 % ID
- % ID Spleen ([4]; 30 min post-injection): 0.11 ± 0.03 % ID
- % ID Urine ([4]; 30 min post-injection): 46.9 ± 3.71 % ID
- % ID Blood ([4]; 60 min post-injection): 2.23 ± 0.15 % ID
- % ID GI Tract ([4]; 60 min post-injection): 17.7 ± 3.8 % ID
- % ID Heart ([4]; 60 min post-injection): 0.07 + 0.02 % ID
- % ID Kidney ([4]; 60 min post-injection): 3.77 ± 0.73 % ID
- % ID Liver ([4]; 60 min post-injection): 1.79 ± 0.45 % ID
- % ID Lung ([4]; 60 min post-injection): 0.28 ± 0.02 % ID
- % ID Muscle ([4]; 60 min post-injection): 4.31 ± 0.95 % ID
- % ID Spleen ([4]; 60 min post-injection): 0.07 ± 0.02 % ID
- % ID Urine ([4]; 60 min post-injection): 65.8 ± 3.4 % ID
- % ID Blood ([4]; 240 min post-injection): 0.09 ± 0.02 % ID
- % ID GI Tract ([4]; 240 min post-injection): 25.4 ± 5.2 % ID
- % ID Heart ([4]; 240 min post-injection): 0.01 % ID
- % ID Kidney ([4]; 240 min post-injection): 5.1 ± 0.99 % ID
- % ID Liver ([4]; 240 min post-injection): 1 + 0.17 % ID
- % ID Lung ([4]; 240 min post-injection): 0.1 ± 0.01 % ID
- % ID Muscle ([4]; 240 min post-injection): 0.81 ± 0.26 % ID
- % ID Spleen ([4]; 240 min post-injection): 0.03 ± 0.02 % ID
- % ID Urine ([4]; 240 min post-injection): 66.08 ± 4.98 % ID
